In assay [1] the test system is SkBr3 cells. The experiment in a line: cell viability MTT assay, SkBr3. Type of assay: cell-based. As to conditions: Homo sapiens, SK-BR-3, 48 h, SkBr3, 48 h, read-out: IC50, cell growth inhibition. As for the experimental part: To determine whether HS-133 can function as a novel anticancer compound, we tested the ability of this compound to inhibit the growth of breast cancer cell lines (SkBr3, T47D, and MCF-7) using an MTT assay. The cells were exposed to various concentrations (0.5–50 μM) of HS-133 for 48 h. As shown in Fig. 3A-C, HS-133 inhibited the growth of all three breast cancer cell lines in a dose-dependent manner.
Cell viability was performed by an MTT assay. Briefly, the SkBr3, T47D, and MCF-7 cells were plated at a density of 1-5 × 10^3 cells/well in a 96-well plate for 48 h. The medium was removed, and the cells were treated with either DMSO as control or various concentrations of HS-133. The final concentration of DMSO in the medium was ≤ 0.1% (v/v). After the cells were incubated for 48 h, 20 μl of MTT solutions (2 mg/ml) was added to each well for another 4 h at 37°C. The formazan crystals that formed were dissolved in DMSO (200 μl/well) via constant shaking for 5 min. The plate was then read on a microplate reader at 540 nm. Three replicate wells were used for each analysis. The median inhibitory concentration (IC50, defined as the drug concentration at which cell growth was inhibited by 50%) was assessed from the dose-response curves.

Assay [2] concerns SkBr3 cells. The assay is described as follows: apoptosis: Western blotting and TUNEL assay. The format is cell-based, human. The source says:
Since PI3K and its downstream effectors appear to mediate anti-apoptotic signals, we examined the effect of HS-133 on apoptosis. […] We also observed that the levels of Bax, pro-apoptotic protein, were increased by HS-133 treatment in a dose-dependent manner. Furthermore, induction of apoptosis by HS-133 was confirmed by visualizing the fragmented DNA with TUNEL staining (Fig. 5B).
The cells were washed three times with ice-cold PBS before lysis, and were lysed with a buffer containing 1% Triton X-100, 1% Nonidet P-40 (NP-40), as well as protease and phosphatase inhibitor cocktails (GenDEPOT, Barker, TX). Equal amounts of protein were separated by 10% sodium dodecyl sulfate-polyacrylamide gel electrophoresis (SDS-PAGE) and transferred onto the polyvinylidene fluoride (PVDF) membranes (Millipore, Bedford, MA). Immunostaining was performed by incubating the blots with primary antibodies, followed by horseradish peroxidase (HRP)-conjugated secondary antibody and detected with an enhanced chemiluminescence (ECL) plus system (Amersham Biosciences, Piscataway, NJ). […]
The SkBr3 cells were plated on 18-mm cover glasses in DMEM medium and incubated for 24 h so that approximately 70% confluence was reached. […] The stained cells were examined for a fluorescence of nuclear fragmentation. […]

Take `CC(=O)Nc1ccc(-c2nc3c(c(=O)n(C)c(=O)n3C)n2-c2cccc(F)c2)cc1` [HS-133, N-(4-(7-(3-Fluorophenyl)-1,3-dimethyl-2,6-dioxo-2,3,6,7-tetrahydro-1H-purin-8-yl)phenyl) acetamide]: in the assay on SkBr3 cells [1], the IC50 was 46.8 µM. Moreover, in the assay on SkBr3 cells [2], the “induction of apoptosis (cleavage of PARP and caspases, Bax, TUNEL)” value is listed as “could induce apoptosis”.

(Values after paper PMC4259414, “HS-133, a novel fluorescent phosphatidylinositol 3-kinase inhibitor as a potential imaging and anticancer agent for targeted therapy” (Oncotarget, 2014).)
